Laboratory results as given in US7732401B2, “Inhibitor of TGF-β activation reaction” (Riken, priority 2007, dated 2010).
Entries after “also recorded” stand apart in the source; their conditions may differ. Where no end group is shown, it is not given here.

Columns and labels:
hepatic stellate cells = assay: Transformation (activation) of cultured hepatic stellate cells on a plastic dish, observed under a microscope; assay type: cell-based, rat; details: for suppression of activation of hepatic stellate cells (morphological change with disappearance of vitamin A-containing oil droplets): Example 1, peptide 1 mM, FIG. 2; for suppression of activation of hepatic stellate cells (morphological change with disappearance of oil droplets containing vitamin A): Example 4, peptide 0.5 mM, FIG. 7
Procedure: According to the method previously reported (Okuno M. et al., Gastroenterology 2001; 120: 1784-1800), hepatic stellate cells were isolated from the liver of male Wistar rats (body weight: 350 to 400 g; Japan Clea), and the isolated cells were then seeded in a concentration of 1×10^6 cells/dish on a 3.5-cm culture plastic dish. Thereafter, the cells were cultured in 1 ml of Dulbecco's modified Eagle medium (DMEM; manufactured by SIGMA) containing 10% fetal calf serum (FCS; manufactured by GIBCO).
From day one of isolation of hepatic stellate cells, they were cultured for 7 days with the following peptides added in the medium; QP peptide (Gln-Ile-Leu-Ser-Lys-Leu-Arg-Leu-Ala-Ser-Pro) (SEQ ID NO: 9); QPA peptide (Gln-Ile-Leu-Ser-Ala-Ala-Ala-Leu-Ala-Ser-Pro) (SEQ ID NO: 10); and a control synthetic peptide consisting of 11 amino acids that is derived from a latent TGF-β1 LAP sequence (Thr-Gly-Val-Val-Arg-Gln-Trp-Leu-Ser-Arg-Gly; this is referred to as T200 peptide) (SEQ ID NO: 11) (please refer to FIG. 1), however anticipated not to influence TGF-β activation reaction because of the sequence being apart from the TGF-β activation control region (Gly51 to Arg110) discovered by the present inventors (International Publication WO2005/023870). […] Influence of each peptide on transformation of hepatic stellate cells (which is also referred to as activation of hepatic stellate cells) induced by culturing them on the plastic dish was observed under a microscope.
A 60 mM aqueous stock solution of each peptide was prepared, and the peptide was then dissolved in a medium to make a final concentration of 1 mM. Until the 3rd day of isolation, the aforementioned cells were treated in a DMEM medium containing 10% FCS. On the 4th day, the medium was exchanged with serum free DMEM containing 0.1% bovine serum albumin (BSA) and each peptide with a final concentration of 1 mM, and the culture was further continued for 2 to 4 days. Thereafter, the culture medium was collected as a conditioned medium, and the amount of active TGF-β1 present in the conditioned medium was measured using an ELISA kit manufactured by PROMEGA. At the same time, the state of the cells was observed under a microscope (DMIRB; manufactured by Leica) and was then photographed.
In accordance with the method described in Example 1, the influence of each of the QP peptide, QPA peptide, QPQ peptide and T200 peptide on transformation of the cultured hepatic stellate cells, which occurs by culturing cells on a plastic dish, was observed.
Each peptide was dissolved in a medium to a final concentration of 0.5 mM (approximately 500 μg/ml). At the 1st day of isolation, the aforementioned cells were treated in a DMEM medium containing 10% FCS. On the 2nd day, the medium was changed with serum free DMEM containing 0.1% BSA and each peptide at a final concentration of 0.5 mM, and the culture was further continued for 2 to 7 days. Thereafter, the culture medium was collected as a conditioned medium, and the amount of active TGF-β1 present in the conditioned medium was then quantitated using an ELISA kit manufactured by PROMEGA. At the same time, the state of the cells was observed under a microscope (DMIRB; manufactured by Leica) and photographed.

plasma kallikrein = biological target: T1, plasma kallikrein (Homo sapiens, UniProt P03952); assay: Cleavage of recombinant human LAP by plasma kallikrein, Western blot semi-quantitative analysis; assay type: biochemical; details: Example 3, peptide 2.5 mg/ml, 37° C., 40 minutes, FIG. 6
T1 construct: purchased SIGMA
Procedure: When 2 μg of recombinant human LAP R & D) (final concentration: 66 μg/ml) was incubated with plasma kallikrein (SIGMA; final concentration of 20 μg/ml), QP peptide, QPA peptide, T200 peptide, and QPQ peptide (SEQ ID NO: 4) were added thereto at a final concentration of 2.5 mg/ml, followed by incubation at 37° C. for 40 minutes. Thereafter, electrophoresis (room temperature, 27 mA, 50 minutes) was carried out using 13.5% polyacrylamide gel, so as to separate LAP (molecular weight: 41 kDa), a LAP degradation product (molecular weight: 38 kDa), and BSA (final concentration: 0.3 mg/ml; molecular weight: […]) used as an additive. Each separated protein or decomposed product was transferred onto a PVDF membrane by using a semi-dry transferring apparatus. According to the method of Akita et al. (Gastroenterology 123; 352-364, 2002), the membrane was then incubated first with a mouse anti-LAP monoclonal antibody (R & D) at a final concentration of 5 μg/ml or a mouse anti-L59 cleavage section-recognizing monoclonal antibody (homemade; International Publication WO2005/023870) at a final concentration of 20 μg/ml, at room temperature for 60 minutes, and then with a horseradish peroxidase-conjugated goat anti-mouse second antibody (Jackson ImmunoResearch Laboratories) at a final concentration of 1 μg/ml at room temperature for 60 minutes. Bands were then developed using an ECL plus reagent (GE Healthcare), so as to carry out the semi-quantitative analysis of the influence of each peptide on the attenuation of LAP band and the generation of LAP degradation product (FIG. 6).

T1 sequence (P03952 20-638, species assumed): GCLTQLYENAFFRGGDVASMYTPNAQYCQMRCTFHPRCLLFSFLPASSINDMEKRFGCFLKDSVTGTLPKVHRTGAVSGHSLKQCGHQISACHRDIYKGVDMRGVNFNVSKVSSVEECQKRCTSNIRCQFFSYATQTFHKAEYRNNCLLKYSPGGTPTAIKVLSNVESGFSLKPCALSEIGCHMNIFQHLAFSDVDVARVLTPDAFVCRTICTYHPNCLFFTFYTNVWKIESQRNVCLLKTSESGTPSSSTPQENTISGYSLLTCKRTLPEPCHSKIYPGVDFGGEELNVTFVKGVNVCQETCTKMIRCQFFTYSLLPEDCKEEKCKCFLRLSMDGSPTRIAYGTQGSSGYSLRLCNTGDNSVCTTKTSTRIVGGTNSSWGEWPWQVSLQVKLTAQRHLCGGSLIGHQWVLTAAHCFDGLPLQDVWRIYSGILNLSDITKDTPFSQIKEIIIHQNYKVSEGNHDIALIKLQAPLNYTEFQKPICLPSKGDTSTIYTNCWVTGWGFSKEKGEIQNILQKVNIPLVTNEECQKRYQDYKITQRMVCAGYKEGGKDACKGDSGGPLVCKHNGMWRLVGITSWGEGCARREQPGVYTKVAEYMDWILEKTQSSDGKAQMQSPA

Substance: N-52QILSAAAAASP62-C (QILSAAALASP) [QPA peptide, mutant of QP peptide with Lys56, Leu57, Arg58 and Leu59 substituted with Ala]
- suppression of activation of hepatic stellate cells (morphological change with disappearance of vitamin A-containing oil droplets) (hepatic stellate cells): significantly suppressed
- suppression of activation of hepatic stellate cells (morphological change with disappearance of oil droplets containing vitamin A) (hepatic stellate cells): significantly suppressed
- inhibition of LAP cleavage reaction (attenuation of LAP band, generation of LAP degradation product) (plasma kallikrein): only a weak inhibitory effect

Substance: N-52QILSQQQQASP62-C [QPQ peptide, mutant of QP peptide with Lys56, Leu57, Arg58 and Leu59 substituted with Gln]
- suppression of activation of hepatic stellate cells (morphological change with disappearance of oil droplets containing vitamin A) (hepatic stellate cells): significantly suppressed; also recorded: strongest suppressing effect
- inhibition of LAP cleavage reaction (attenuation of LAP band, generation of LAP degradation product) (plasma kallikrein): more strongly than the QP peptide

Substance: TGVVRQWLSRG [T200 peptide, reference compound]
- suppression of activation of hepatic stellate cells (morphological change with disappearance of vitamin A-containing oil droplets) (hepatic stellate cells): did not exhibit such a suppressing effect
- suppression of activation of hepatic stellate cells (morphological change with disappearance of oil droplets containing vitamin A) (hepatic stellate cells): did not exhibit such a suppressing effect
- inhibition of LAP cleavage reaction (attenuation of LAP band, generation of LAP degradation product) (plasma kallikrein): only a weak inhibitory effect

Substance: QILSKLRLASP [QP peptide]
- suppression of activation of hepatic stellate cells (morphological change with disappearance of vitamin A-containing oil droplets) (hepatic stellate cells): weakly suppressing effect
- suppression of activation of hepatic stellate cells (morphological change with disappearance of oil droplets containing vitamin A) (hepatic stellate cells): significantly suppressed
- inhibition of LAP cleavage reaction (attenuation of LAP band, generation of LAP degradation product) (plasma kallikrein): significantly inhibited
